Here are results for nine compounds from patent US20110044892A1, “FORMULATION AND METHOD FOR TREATMENT OF TEETH” (priority 2007, published 2011).

Series [1] in a line: pH of solution or formulation. The format is physicochemical. The settings on record: solution as applied to dentin. The text has this:
If the solution applied to the dentin is too acidic, for example, lower than 5.5, it will demineralize and thereby undesirably weaken the dentin. If the solution applied to the dentin is too basic, for example, in excess of 7.5, it will undesirably form a lot of calculus. An ideal pH for the dentin treatment solution is considered to be about 6 to 7, preferably about 6.6 to 7. Such a pH is believed to be important not only to prevent de-mineralization but also to aid in re-mineralization of dentin surfaces. Therefore, in accordance with the present invention, the dentin treatment solution is formulated to have a pH of about 6 to 7, preferably about 6.6 to 7. […] The formulation with the addition of the insoluble oxide forms on the surface of the dentin or other tooth surface a protective coat that keeps the pH constant to maintain the tooth integrity and protect its surface from, for example, routinely used acidic beverages, protection of dental restorations, and microleakage protection (protection from bacterial leakage and leakage associated with restorative materials) as well as for re-mineralization. The insoluble oxide may include other insoluble substances providing a pH of about 6 to 7 in the dentin treatment solution and on the dentin surfaces, for example, amphoteric oxides such as aluminum oxide and zinc oxide. […]

Series [2] is described as follows: Dentinal tubule plugging by lanthanide salt solutions on etched dentine discs (SEM, backscattered SEM, EDX). Details: species or system human. The settings on record: for depth of penetration within the tubules: 4% to 5% by weight solution in water; for depth of penetration within the tubules / blockage or plugging of the tubules (SEM appearance) / deposits on / coverage of the dentinal surface: 5 to 10 minutes on disc; for depth of penetration within the tubules / penetration of / deposits within the tubules (qualitative): SEM; for blockage or plugging of the tubules (SEM appearance) / deposits on / coverage of the dentinal surface: solution in water; for presence of the lanthanide by EDX: energy dispersive X-ray microanalysis of treated dentine; for penetration of / deposits within the tubules (qualitative): in water. From the text:
We also assessed other lanthanide compounds, as hereinafter discussed.
For each of the lanthanide salts, caries-free surgically-extracted human molar teeth were cleaned of organic material and, after removal of the crown, sectioned mesio-distally to provide one to two 1-mm dentine discs which were used in the experiment immediately. […] A solution containing a respective one of the above-mentioned lanthanide salts in a concentration of 4% to 5% by weight in the solvent was placed on or in contact with the discs respectively for 5 to 10 minutes before rinsing under flowing tap water. These treated discs were dried completely and then split using pliers, this helping to expose the tubular area for observation of depth of penetration. Specimens were then carbon-coated before examination under SEM (scanning electron microscope). The same procedure was used for each of the other lanthanide compounds hereinafter discussed.
When observed in a backscattered electron beam, dense materials appear as high contrast (bright areas) material relative to the background material (tooth structure). Lanthanides in general have greater density compared to the hydroxyapatite present in the tooth. Thus, in a backscattered electron beam, the lanthanides appear as bright areas due to their high density compared to the background.

The text on series [3]:
For the purposes of this specification and the claims, the term “soluble” refers to a characteristic of a salt of dissolving in water (or other solvent in which the salt is placed) to the extent that there is substantially no precipitation or settling out of material.

Turning to `O=C([O-])C(=O)[O-].[K+].[K+]` [potassium oxalate, reference compound], the pH of solution entry in series [1] is given as “about 2”. In series [2], the “depth of penetration within the tubules” value was in the range of 3 to 4 microns, the “blockage or plugging of the tubules (SEM appearance)” value is given as “formed crystals that appear to block the tubules” and the “deposits on / coverage of the dentinal surface” value (from here on “deposits on / coverage”) is “a substantial amount of potassium oxalate was deposited on the dentin surface”.

Regarding `O.O.O.O.O.O.O.[Cl-].[Cl-].[Cl-].[La+3]` [lanthanum chloride, lanthanum chloride heptahydrate], in series [2], the “depth of penetration within the tubules” value is on record as “up to 12 microns”, the “presence of the lanthanide by EDX” value is recorded as “confirmed”, the “blockage or plugging of the tubules (SEM appearance)” value was “substantially complete blockage or plugging of the tubules” and the “deposits on / coverage” value is given as “cover some of the surface”.

With `O=C([O-])[O-].O=C([O-])[O-].O=C([O-])[O-].[La+3].[La+3]` [lanthanum carbonate], in series [2], the “penetration of / deposits within the tubules (qualitative)” value is “poor penetration of the tubules”, the “blockage or plugging of the tubules (SEM appearance)” value was “no plugging observed” and the “deposits on / coverage” value is given as “no dentin surface deposits were observed”.

Regarding `O.O.O.O.O.O.O=[N+]([O-])[O-].O=[N+]([O-])[O-].O=[N+]([O-])[O-].[Gd+3]` [gadolinium nitrate, gadolinium nitrate hexahydrate], in series [1], the pH of solution result was “about 4.3”. Moreover, in series [2], the “depth of penetration within the tubules” value is “up to 5 microns”, the “presence of the lanthanide by EDX” value is “confirmed”, the “blockage or plugging of the tubules (SEM appearance)” value is recorded as “substantially complete blockage or plugging of the tubules” and the “deposits on / coverage” value was “substantially covering the dentinal surface”.

`O.O.O.O.O.O.[Cl-].[Cl-].[Cl-].[Gd+3]` [gadolinium chloride, gadolinium chloride hexahydrate]: in series [2], the “presence of the lanthanide by EDX” value was “confirmed”, the “blockage or plugging of the tubules (SEM appearance)” value was “substantially complete blockage or plugging of the tubules” and the “deposits on / coverage” value is listed as “cover substantially the dentinal surface”.

For `[La+3].[OH-].[OH-].[OH-]` [lanthanum hydroxide], the solubility in water entry in series [3] is listed as “not being soluble in water”. For the same compound, in series [2], the “penetration of / deposits within the tubules (qualitative)” value was “poor penetration of the tubules”, the “blockage or plugging of the tubules (SEM appearance)” value is “no plugging observed” and the “deposits on / coverage” value is recorded as “no dentin surface deposits were observed”.

Regarding `O.O.O.O.O.O.O.[Ce+3].[Cl-].[Cl-].[Cl-]` [cerium chloride, cerium chloride heptahydrate], in series [2], the “presence of the lanthanide by EDX” value was “confirmed”, the “blockage or plugging of the tubules (SEM appearance)” value is on record as “substantially complete blockage or plugging of the tubules” and the “deposits on / coverage” value is “cover substantially the dentinal surface”.

For `O.O.O.O.O.O.[Cl][Sm]([Cl])[Cl]` [samarium chloride, samarium chloride hexahydrate], in series [2], the “presence of the lanthanide by EDX” value is given as “confirmed”, the “blockage or plugging of the tubules (SEM appearance)” value is recorded as “substantially complete blockage or plugging of the tubules” and the “deposits on / coverage” value is “cover substantially the dentinal surface”.

With `O=[N+]([O-])[O-].[K+]` [potassium nitrate, reference compound], in series [2], the “penetration of / deposits within the tubules (qualitative)” value is “little or no deposits within the tubules” and the “deposits on / coverage” value is recorded as “considerable deposits on the surface”.
